Results taken from ChEMBL document CHEMBL1127819, “Classical and nonclassical furo[2,3-d]pyrimidines as novel antifolates: synthesis and biological activities” (J Med Chem, 1994).

Columns and labels:
SF-268 = assay: Growth inhibitory concentration against tumor cells in culture CNS cancer cell line, SF-268; type: functional, Homo sapiens
FaDu [1] = assay: Protection of FaDu cells from growth inhibitory effects of compound by 50 uM hypoxanthine (Hx); type: functional, Homo sapiens; parameters: scale not given: the % may be the effect or the level left
NCI-H460 = assay: Growth inhibitory concentration against tumor cells in culture non-small-cell-lung NCI-H460; type: functional, Homo sapiens
MDA-N = assay: Growth inhibitory concentration against tumor cells in culture breast cancer cell line, MDA-N; type: functional, Homo sapiens
ACHN = assay: Inhibitory activity against kidney A-CHN tumor cell growth in culture; type: functional, cell-based; settings: Homo sapiens
LOX IMVI = assay: Growth inhibitory concentration against tumor cells in culture melanoma LOX-IMVI; type: functional, Homo sapiens
Dihydrofolate reductase [2] = target: T1, Dihydrofolate reductase (Pneumocystis carinii, UniProt P16184); assay: Inhibitory concentration for DHFR in Pneumocystis carinii
T1 sequence (P16184 whole entry): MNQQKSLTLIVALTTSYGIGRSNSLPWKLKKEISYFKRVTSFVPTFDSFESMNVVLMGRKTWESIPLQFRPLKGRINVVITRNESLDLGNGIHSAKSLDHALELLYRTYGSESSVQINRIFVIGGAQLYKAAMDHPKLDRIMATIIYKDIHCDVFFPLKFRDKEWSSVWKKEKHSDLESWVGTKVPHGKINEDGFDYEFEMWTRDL

PC-3 = assay: Growth inhibitory concentration against tumor cells in culture prostate cancer PC-3; type: functional, Homo sapiens
CCRF-CEM [3] = assay: Inhibitory activity against CCRF-CEM tumor cell growth in culture; type: functional, cell-based; settings: Homo sapiens
Thymidylate synthase [4] = target: Thymidylate synthase (Lactobacillus casei, UniProt P00469); assay: Inhibitory concentration for TS in Lactobacillus casei; parameters: species or system Lacticaseibacillus casei
FaDu [5] = assay: Protection of FaDu cells from growth inhibitory effects of compound by combination of 50 uM hypoxanthine (Hx) and 40 uM thymidine (TdR); type: functional, Homo sapiens; parameters: scale not given: the % may be the effect or the level left
CCRF-CEM [6] = assay: Growth inhibition of human T-lymphoblastic leukemia cell line CCRF-CEM; type: functional, cell-based
U-251 = assay: Growth inhibitory concentration against tumor cells in cultureCNS cancer cell line, U-251; type: functional, Homo sapiens
[7] = tested on: folylpolyglutamate synthetase (FPGS); assay: (§1) Activity is determined as substrate for CCRF-CEM human leukemia cell folyl-poly-glutamate synthetase; type: ADME; settings: folylpolyglutamate synthetase from CCRF-CEM leukemia cells
Homo sapiens = species: Homo sapiens; assay: as §1; type: ADME
CCRF-CEM [8] = assay: Growth inhibition of methotrexate resistant human T-lymphoblastic leukemia cell subline CEM/MTX; type: functional, cell-based
Dihydrofolate reductase [9] = target: T2, Dihydrofolate reductase (Homo sapiens, UniProt P00374); assay: Inhibitory concentration for DHFR in recombinant human
T2 sequence (P00374 whole entry): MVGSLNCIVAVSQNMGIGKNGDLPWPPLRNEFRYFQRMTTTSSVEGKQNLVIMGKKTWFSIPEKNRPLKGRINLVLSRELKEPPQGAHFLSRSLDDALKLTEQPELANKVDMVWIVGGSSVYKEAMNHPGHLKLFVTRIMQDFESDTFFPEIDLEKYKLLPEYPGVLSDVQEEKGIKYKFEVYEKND

HL-60 = assay: Growth inhibitory concentration against tumor cells in culture leukemia cell line, HL-60(TB); type: functional, Homo sapiens
IGROV-1 = assay: Growth inhibitory concentration against tumor cells in culture ovarian cancer IGROV-1; type: functional, Homo sapiens
FaDu [10] = assay: Protection of FaDu cells from growth inhibitory effects of compound with no addition; type: functional, Homo sapiens; parameters: scale not given: the % may be the effect or the level left
SK-5 = assay: Inhibitory activity against melanoma SK-5 tumor cell growth in culture; type: functional, cell-based; settings: Homo sapiens
FaDu [11] = assay: Growth inhibition of human squamous cell carcinoma FaDu; type: functional, cell-based
Dihydrofolate reductase [12] = target: Dihydrofolate reductase (Lactobacillus casei, UniProt P00381)
Description: Inhibitory concentration for DHFR in Lactobacillus casei

HCT-116 = assay: Growth inhibitory concentration against tumor cells in culture colon cancer HCT116; type: functional, Homo sapiens
MCF7 = assay: Growth inhibitory concentration against tumor cells in culture breast cancer cell line, MCF-7; type: functional, Homo sapiens
MDA-MB-435 = assay: Growth inhibitory concentration against tumor cells in culture breast cancer cell line, MDA-MB-435; type: functional, Homo sapiens
786-0 = assay: Growth inhibitory concentration against tumor cells in culture renal cancer […] cell line; type: functional, Homo sapiens
[13] = target: T3, Bifunctional dihydrofolate reductase-thymidylate synthase (Toxoplasma gondii, UniProt Q07422)
T3 sequence (Q07422 whole entry): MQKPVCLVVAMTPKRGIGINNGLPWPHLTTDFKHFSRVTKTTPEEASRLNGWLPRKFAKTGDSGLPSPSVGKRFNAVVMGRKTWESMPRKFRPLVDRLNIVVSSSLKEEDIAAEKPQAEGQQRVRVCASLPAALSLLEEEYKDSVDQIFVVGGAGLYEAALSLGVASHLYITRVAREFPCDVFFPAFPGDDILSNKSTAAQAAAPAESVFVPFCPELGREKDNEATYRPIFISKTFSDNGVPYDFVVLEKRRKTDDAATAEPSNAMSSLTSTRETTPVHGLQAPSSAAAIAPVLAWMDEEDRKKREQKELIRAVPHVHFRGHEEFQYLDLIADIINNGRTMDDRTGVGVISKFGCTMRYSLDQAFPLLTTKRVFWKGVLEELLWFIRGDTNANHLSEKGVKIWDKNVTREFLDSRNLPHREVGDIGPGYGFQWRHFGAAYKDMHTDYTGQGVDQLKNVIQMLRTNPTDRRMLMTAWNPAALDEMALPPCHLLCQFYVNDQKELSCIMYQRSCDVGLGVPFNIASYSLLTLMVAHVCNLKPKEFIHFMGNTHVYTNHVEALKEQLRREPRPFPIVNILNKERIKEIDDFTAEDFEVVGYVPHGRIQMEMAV
Description: Inhibitory concentration for DHFR in Toxoplasma gondii

FaDu [14] = assay: Protection of FaDu cells from growth inhibitory effects of compound by 40 uM thymidine (TdR); type: functional, Homo sapiens; parameters: scale not given: the % may be the effect or the level left
Dihydrofolate reductase [15] = target: T4, Dihydrofolate reductase (Rattus norvegicus, UniProt Q920D2)
T4 sequence (Q920D2 whole entry): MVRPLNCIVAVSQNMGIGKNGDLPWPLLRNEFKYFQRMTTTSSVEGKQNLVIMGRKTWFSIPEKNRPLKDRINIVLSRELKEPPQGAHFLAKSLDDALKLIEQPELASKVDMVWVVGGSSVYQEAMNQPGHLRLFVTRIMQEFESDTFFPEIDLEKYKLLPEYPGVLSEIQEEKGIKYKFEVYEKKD
Description: Inhibitory concentration for DHFR in rat liver

FaDu [16] = assay: Protection of FaDu cells from growth inhibitory effects of compound by 10 uM leucovorin (LV); type: functional, Homo sapiens; parameters: scale not given: the % may be the effect or the level left
K562 = assay: Growth inhibitory concentration against tumor cells in culture leukemia cell line, K-562; type: functional, Homo sapiens
Thymidylate synthase [17] = target: Thymidylate synthase (Homo sapiens, UniProt P04818); assay: Inhibitory concentration for TS in human
R30dm-CCRF-CEM [18] = assay: Growth inhibition of methotrexate resistant human T-lymphoblastic leukemia cell subline R30dm; type: functional, cell-based
R30dm-CCRF-CEM [19] = assay: the growth inhibition of, (during continuous exposure) methotrexate resistant human T-lymphoblastic leukemia cell subline R30dm at resistance mechanism - decreased FPGS; type: functional, cell-based
FaDu [20] = assay: the growth inhibition of, (during continuous exposure) human squamous cell carcinoma FaDu at resistance mechanism - sensitive

Dihydrofolate reductase (Lactobacillus casei, UniProt P00381), sequence (P00381 whole entry): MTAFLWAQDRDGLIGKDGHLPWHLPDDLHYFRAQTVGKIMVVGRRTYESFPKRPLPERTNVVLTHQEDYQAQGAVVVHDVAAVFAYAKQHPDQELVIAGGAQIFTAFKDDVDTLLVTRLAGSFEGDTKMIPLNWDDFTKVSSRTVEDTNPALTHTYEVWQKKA
Thymidylate synthase (Homo sapiens, UniProt P04818), sequence (P04818 whole entry): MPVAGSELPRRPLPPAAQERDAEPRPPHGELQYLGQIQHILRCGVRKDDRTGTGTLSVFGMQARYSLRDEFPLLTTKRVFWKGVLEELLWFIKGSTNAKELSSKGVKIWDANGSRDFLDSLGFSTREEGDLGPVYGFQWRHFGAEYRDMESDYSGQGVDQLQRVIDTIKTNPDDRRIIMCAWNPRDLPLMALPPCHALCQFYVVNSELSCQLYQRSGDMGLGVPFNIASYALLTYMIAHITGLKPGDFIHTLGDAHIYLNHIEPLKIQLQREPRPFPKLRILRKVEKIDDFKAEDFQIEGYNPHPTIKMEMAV
Thymidylate synthase (Lactobacillus casei, UniProt P00469), sequence (P00469 whole entry): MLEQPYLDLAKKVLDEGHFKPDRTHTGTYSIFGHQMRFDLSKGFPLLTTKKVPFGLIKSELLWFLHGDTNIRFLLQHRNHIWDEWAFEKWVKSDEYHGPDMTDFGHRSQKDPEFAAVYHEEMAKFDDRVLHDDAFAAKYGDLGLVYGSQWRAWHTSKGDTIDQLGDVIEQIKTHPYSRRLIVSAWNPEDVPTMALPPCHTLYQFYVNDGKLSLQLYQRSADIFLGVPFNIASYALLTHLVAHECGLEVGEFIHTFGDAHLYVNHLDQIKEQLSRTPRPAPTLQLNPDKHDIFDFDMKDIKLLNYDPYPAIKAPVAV

SMILES | Control (FaDu [1]) [%] | IC50 (ACHN) [µM] | IC50 (Dihydrofolate reductase [2]) [µM] | IC50 (CCRF-CEM [3]) [µM] | Control (FaDu [5]) [%] | Km [7] [µM] | Vmax (Homo sapiens) [rel] | IC50 (Dihydrofolate reductase [9]) [µM] | Control (FaDu [10]) [%] | IC50 (SK-5) [µM] | IC50 (Dihydrofolate reductase [12]) [µM] | IC50 [13] [µM] | Control (FaDu [14]) [%] | IC50 (Dihydrofolate reductase [15]) [µM] | Control (FaDu [16]) [%] | also measured
Nc1nc(N)c2c(CNc3ccc(C(=O)NC(CCC(=O)O)C(=O)O)cc3)coc2n1 (configuration not stated) | 4.5 | > 100 | 0.9 | 0.59 | 82 | 1.9 | 0.45 | 0.45 | 4.9 | > 100 | 0.56 | 0.7 | 18.4 | 1.3 | 110 | IG50 (SF-268): 1.77 µM; IG50 (NCI-H460): 3.75 µM; IG50 (MDA-N): 1.73 µM; IG50 (LOX IMVI): 1.23 µM; IG50 (PC-3): 0.7 µM; IC50 (Thymidylate synthase [4]): > 200 µM; EC50 (CCRF-CEM [6]): 0.142 µM; IG50 (U-251): 1.97 µM; EC50 (CCRF-CEM [8]): 3.17 µM; IG50 (HL-60): 0.02 µM; IG50 (IGROV-1): >100 µM; EC50 (FaDu [11]): 0.126 µM; IG50 (HCT-116): 0.09 µM; IG50 (MCF7): 6.31 µM; IG50 (MDA-MB-435): 45.8 µM; IG50 (786-0): 0.91 µM; IG50 (K562): 0.06 µM; IC50 (Thymidylate synthase [17]): > 200 µM; EC50 (R30dm-CCRF-CEM [18]): 0.663 µM
COc1ccc(OC)c(NCc2coc3nc(N)nc(N)c23)c1 | – | > 160 | > 21 | 132 | – | – | – | > 15 | – | > 160 | > 31 | > 21 | – | > 21 | – | –
Nc1nc(N)c2c(CNc3ccc(Cl)c(Cl)c3)coc2n1 | – | > 150 | > 35 | 40.9 | – | – | – | > 15 | – | > 150 | > 3 | – | – | 35.2 | – | –
Nc1nc(N)c2nc(CNc3ccc(C(=O)N[C@@H](CCC(=O)O)C(=O)O)cc3)cnc2n1 [AMINOPTERIN] | – | – | – | – | – | 6.8 | 1 | – | – | – | – | – | – | – | – | –
CN(Cc1cnc2nc(N)nc(N)c2n1)c1ccc(C(=O)N[C@@H](CCC(=O)O)C(=O)O)cc1 [METHOTREXATE] | 11 | – | – | – | 98 | – | – | – | 2.5 | – | – | – | 7.3 | – | 114 | EC50 (R30dm-CCRF-CEM [19]): 0.018 µM; EC50 (FaDu [20]): 0.019 µM
CN(Cc1coc2nc(N)nc(N)c12)c1ccc(C(=O)NC(CCC(=O)O)C(=O)O)cc1 (configuration not stated) | 1.9 | 0.837 | 0.035 | 0.043 | 80 | 4.65 | 0.75 | – | 6.6 | 14 | 0.22 | 19.8 | 17.1 | 0.43 | 106 | IG50 (SF-268): 0.59 µM; IG50 (NCI-H460): 0.15 µM; IG50 (MDA-N): 0.065 µM; IG50 (LOX IMVI): 0.04 µM; IG50 (PC-3): <0.01 µM; IC50 (Thymidylate synthase [4]): > 200 µM; EC50 (CCRF-CEM [6]): 0.047 µM; IG50 (U-251): 0.75 µM; EC50 (CCRF-CEM [8]): 2.27 µM; IG50 (HL-60): <0.01 µM; IG50 (IGROV-1): 0.73 µM; EC50 (FaDu [11]): 0.055 µM; IG50 (HCT-116): 0.02 µM; IG50 (MCF7): 0.08 µM; IG50 (MDA-MB-435): 0.09 µM; IG50 (786-0): 0.07 µM; IG50 (K562): 0.024 µM; IC50 (Thymidylate synthase [17]): > 200 µM; EC50 (R30dm-CCRF-CEM [18]): 1.03 µM
Nc1nc(N)c2c(CNc3cc(Cl)c(Cl)c(Cl)c3)coc2n1 | – | 40.9 | 8.3 | 10.6 | – | – | – | > 25 | – | 47.6 | > 25 | > 3.9 | – | 25.6 | – | –
COc1cc(NCc2coc3nc(N)nc(N)c23)cc(OC)c1OC | – | > 130 | > 4 | 111 | – | – | – | > 26 | – | > 130 | > 26 | 4 | – | > 37 | – | –
